{"source": "patent US20100099756A1", "about": "“USES OF INCENSOLE, INCENSOLE ACETATE AND DERIVATIVES THEREOF” (YISSUM RESEARCH DEVELOPMENT COMPANY OF THE HEBREW …, priority 2006, published 2010)", "key": {"TRPV3": {"molecular_target": "T1, TRPV3 (Mus musculus, UniProt Q8K424)", "T1 sequence (Q8K424 1-791)": "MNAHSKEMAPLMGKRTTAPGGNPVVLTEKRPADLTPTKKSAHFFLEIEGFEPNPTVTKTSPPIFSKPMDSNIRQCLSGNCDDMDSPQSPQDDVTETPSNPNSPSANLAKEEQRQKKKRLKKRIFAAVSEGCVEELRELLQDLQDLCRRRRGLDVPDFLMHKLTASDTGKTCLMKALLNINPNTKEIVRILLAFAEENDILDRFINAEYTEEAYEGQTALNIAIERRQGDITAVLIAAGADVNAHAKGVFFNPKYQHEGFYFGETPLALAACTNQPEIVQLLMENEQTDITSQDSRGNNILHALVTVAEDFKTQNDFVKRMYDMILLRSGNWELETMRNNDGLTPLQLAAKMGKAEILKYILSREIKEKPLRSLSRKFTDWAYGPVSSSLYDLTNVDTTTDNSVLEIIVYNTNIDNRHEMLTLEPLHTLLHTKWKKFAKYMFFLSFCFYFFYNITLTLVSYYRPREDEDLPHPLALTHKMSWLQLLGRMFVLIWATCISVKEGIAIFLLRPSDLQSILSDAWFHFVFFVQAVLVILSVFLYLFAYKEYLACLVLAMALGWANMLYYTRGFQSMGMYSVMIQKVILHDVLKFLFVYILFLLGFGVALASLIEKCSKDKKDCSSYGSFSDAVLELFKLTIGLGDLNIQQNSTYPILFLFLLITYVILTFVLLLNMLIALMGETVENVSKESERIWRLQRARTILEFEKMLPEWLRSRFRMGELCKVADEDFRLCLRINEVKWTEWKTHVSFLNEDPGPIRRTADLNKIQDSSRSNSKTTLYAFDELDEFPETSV", "test": "Elevated plus maze in WT and TRPV3−/− mice", "format": "in vivo, C57BL/6 mice", "parameters": "from tissue; host or cells: whole animal, wild type C57BL/6 female mice (TRPV3 KO as control)", "conditions": "75 mg/kg", "experimental": "Wild type and TRPV3^−/− mice (18-20 weeks old) were injected with vehicle (isopropanol:emulphor:saline=1:1:18) or IA (75 mg/kg). 30 min later they were tested in a, the elevated plus maze (5 min), followed by b, 9 min exposure to the Porsolt forced-swimming test. […] Data are presented as means±SEM; n=4-5. * p<0.05, compared to WT-Vehicle-injected mice (Bonferroni post hoc test). ** p<0.01, compared to WT-Vehicle-injected mice (Bonferroni post hoc test).\nMice were placed in the central platform (10×10 cm) between the open (10×45 cm) and enclosed (10×45×40 cm) arms of a plus maze. The number of entries and the time spent in each of the arms was recorded. As described by others (Crawley, 2000; Treit and Menard, 1998), an ‘anti-anxiety’ effect was calculated both as the ratio of entries onto the open arms to total arm entries, and as the % time on the open arms proportional to the time in the closed arms. Mice (female Sabra strain, aged 3.5-4.5 months old) were injected intraperitoneally with 10, 30 or 50 mg/kg of incensole acetate or with vehicle. Each dose was administered to 5 mice. Fifty min after injection the mice were tested in the plus-maze for […] effects. Desipramine (5 mg/kg) was injected to a separate group of mice as a positive control. One-way Anova indicated significant effects (F=8.9, df=4.27, P<0.01). […] Data are presented as means±SEM. DMI=desipramine […]"}, "NO generation": {"tested_on": "NO generation", "test": "Nitric oxide (NO) levels in LPS-activated murine peritoneal macrophages", "format": "cell-based, mice", "experimental": "(A(1)) Representative Western Blot bands of Cox2 are shown with tubulin as reference. (A(2)) COX-2 levels were measured in RAW 264.7 cells incubated for 24 hrs. with LPS in the presence or in the absence of IA (60 μM/ml); **, p<0.001. (B) Murine peritoneal macrophages were activated by LPS (1 μg/ml for 24 hrs.) in absence of IA or in the presence of IA at indicated concentrations. NO generation was determined by measuring the nitrite accumulated in the supernatants; **, p<0.001. (C) Generation of ROS by RAW 264.7 macrophages (5×10^5 cells in 0.5 ml Hanks' balanced salt solution) was measured by chemiluminescence. Cells were pre-incubated with various doses of IA for 24 hrs before luminol (10 μl) and zymosan (30 μl) were added to the tubes; *, p<0.05; **, p<0.01; ***, p<0.001\nPeritoneal macrophages were harvested from C57BL/6 female mice four days after intraperitoneal injection of 1.5 ml of a 3% thioglycollate medium (Difco, N.J., USA). […]\nNitric Oxide (NO) Levels. […] NO generation was determined by measuring the nitrite accumulated in the supernatants (100 μl) of the IA-treated macrophages as follows. […] Following 10 min of incubation at room temperature, the color production was measured at 550 nm with an ELISA reader. The concentration of the nitrite was calculated according to a standard curve."}}, "data": [{"smiles": "CC(=O)OC1CC/C(C)=C/CC/C(C)=C/CC2(C(C)C)CCC1(C)O2", "note": "(stereo not shown) [IA, incensole acetate]", "values": [{"measurement": "time on the open arms, TRPV3−/− mice", "setting": "TRPV3; TRPV3−/− mice, IA vs vehicle", "result": "spent identical time on the open arms"}, {"measurement": "time on the open arms, WT mice", "setting": "TRPV3; WT mice, 30 min after injection", "result": "potent anxiolytic-like effect"}, {"measurement": "NO generation (nitrite in supernatants), dose dependence", "setting": "NO generation; LPS 1 μg/ml for 24 hrs, ANOVA P<0.0001", "result": "inhibited NO generation in a dose dependent manner"}, {"measurement": "NO production", "setting": "NO generation; at 80 μM, p=0.0022", "result": "about 45%"}]}]}
